Compound in assay [1]: C[C@@H]1CN(CC(=O)Nc2ccc3c(c2)Cc2cccc(-c4cc(=O)cc(N5CCOCC5)o4)c2S3)C[C@H](C)O1
In words: surviving fraction relative to DMSO-only wells; higher = less growth inhibition. The settings on record: exposure time: 5 days. In short, it runs like this: (§1)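 Continuous five-day exposure to inhibitors at 0.5, 1, 5, 10, 50, 100, 500 and 1000 nM started 24 hours after log-phase tumour cell lines were seeded at 250–500 cells per well in 384-well plates. Luminescence was read after 10 minutes at room temperature. Viability is given as surviving fraction, meaning CellTiter-Glo luminescence normalised to the median of DMSO-only wells.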

Compound in another assay: Cc1c(N)nc([C@H](CC(N)=O)NC[C@H](N)C(N)=O)nc1C(=O)N[C@H](C(=O)N[C@H](C)[C@@H](O)[C@H](C)C(=O)N[C@H](C(=O)NCCc1nc(-c2nc(C(=O)NCCC[S+](C)C)cs2)cs1)[C@@H](C)O)[C@@H](OC1OC(CO)C(O)C(O)C1OC1OC(CO)C(O)C(OC(N)=O)C1O)c1cnc[nH]1 [BLEOMYCIN]
The assay is described as above. The settings on record: exposure time: 5 days. In short, it runs like this:
as §1

± gives the standard deviation of the averaged measurements.

For SG32 HEADNECK, the surviving fraction in assay [1] (0.5 nM) was 1.16 ± 0.16; in assay [1] (1 nM), 1.07 ± 0.2; in assay [1] (5 nM), 1.12 ± 0.18; in assay [1] (10 nM) it was 1.62 ± 0.39; in assay [1] (50 nM) it was 0.939 ± 0.091; in assay [1] (100 nM), 1.05 ± 0.047. Moreover, the surviving fraction in assay [1] (500 nM) came to 0.74 ± 0.11; in assay [1] (1000 nM), 0.681 ± 0.082; in the assay with BLEOMYCIN (0.5 nM), 0.921 ± 0.32; in the assay with BLEOMYCIN (1 nM), 0.967 ± 0.23; with BLEOMYCIN (5 nM) it was 0.818 ± 0.069; with BLEOMYCIN (10 nM), 0.825 ± 0.17. For the same test system, the surviving fraction came to 0.824 ± 0.071 with BLEOMYCIN (50 nM), 0.698 ± 0.048 with BLEOMYCIN (100 nM), 0.593 ± 0.094 with BLEOMYCIN (500 nM) and 0.427 ± 0.05 with BLEOMYCIN (1000 nM).

For CADOES1 SOFT TISSUE, the surviving fraction in assay [1] (0.5 nM) worked out at 0.951 ± 0.15; in assay [1] (1 nM), 0.965 ± 0.065; in assay [1] (5 nM), 0.974 ± 0.07; in assay [1] (10 nM) it was 0.981 ± 0.084; in assay [1] (50 nM), 1.11 ± 0.055; in assay [1] (100 nM) it was 0.995 ± 0.1. Moreover, the surviving fraction in assay [1] (500 nM) was found to be 1.01 ± 0.096; in assay [1] (1000 nM) it was 1.02 ± 0.032; in the assay with BLEOMYCIN (0.5 nM), 0.943 ± 0.079; with BLEOMYCIN (1 nM), 0.967 ± 0.089; with BLEOMYCIN (5 nM), 0.789 ± 0.12; with BLEOMYCIN (10 nM) it was 0.776 ± 0.067. For the same test system, the surviving fraction with BLEOMYCIN (50 nM) turned out to be 0.683 ± 0.051; with BLEOMYCIN (100 nM) it was 0.503 ± 0.14; in the assay with BLEOMYCIN (500 nM) it was 0.285 ± 0.019; in the assay with BLEOMYCIN (1000 nM), 0.116 ± 0.017.

On to CME SYNOVIAL, for which the surviving fraction is 1.35 ± 0.097 in assay [1] (0.5 nM); 1.44 ± 0.15 in assay [1] (1 nM); 1.25 ± 0.042 in assay [1] (5 nM); 1.28 ± 0.13 in assay [1] (10 nM); 1.11 ± 0.085 in assay [1] (50 nM); 1.02 ± 0.054 in assay [1] (100 nM). Further, the surviving fraction in assay [1] (500 nM) amounted to 0.689 ± 0.11; in assay [1] (1000 nM), 0.388 ± 0.014; with BLEOMYCIN (0.5 nM) it was 0.718 ± 0.14; with BLEOMYCIN (1 nM), 0.749 ± 0.16; with BLEOMYCIN (5 nM), 0.742 ± 0.12; with BLEOMYCIN (10 nM), 0.513 ± 0.081. Further, the surviving fraction with BLEOMYCIN (50 nM) came to 0.265 ± 0.021; in the assay with BLEOMYCIN (100 nM), 0.293 ± 0.036; with BLEOMYCIN (500 nM), 0.211 ± 0.0078; in the assay with BLEOMYCIN (1000 nM), 0.203 ± 0.0091.

As to HCC1806 BREAST, the surviving fraction in assay [1] (0.5 nM) came to 1.05 ± 0.14; in assay [1] (1 nM), 1.07 ± 0.086; in assay [1] (5 nM) it was 1.12 ± 0.08; in assay [1] (10 nM) it was 1.1 ± 0.035; in assay [1] (50 nM), 0.959 ± 0.067; in assay [1] (100 nM) it was 0.949 ± 0.12. Further, the surviving fraction in assay [1] (500 nM) is 0.699 ± 0.065; in assay [1] (1000 nM) it was 0.477 ± 0.024; in the assay with BLEOMYCIN (0.5 nM) it was 0.771 ± 0.058; with BLEOMYCIN (1 nM), 0.824 ± 0.1; in the assay with BLEOMYCIN (5 nM) it was 0.682 ± 0.035; with BLEOMYCIN (10 nM), 0.56 ± 0.0059. In addition, the surviving fraction with BLEOMYCIN (50 nM) is 0.397 ± 0.0062; with BLEOMYCIN (100 nM) it was 0.2757 ± 0.0015; with BLEOMYCIN (500 nM) it was 0.108 ± 0.0021; with BLEOMYCIN (1000 nM) it was 0.0743 ± 0.0095.

With MDAMB361 BREAST, the surviving fraction in assay [1] (0.5 nM) was 0.778 ± 0.042; in assay [1] (1 nM) it was 0.885 ± 0.074; in assay [1] (5 nM) it was 0.776 ± 0.078; in assay [1] (10 nM), 0.756 ± 0.083; in assay [1] (50 nM), 0.591 ± 0.036; in assay [1] (100 nM), 0.765 ± 0.056. In addition, the surviving fraction in assay [1] (500 nM) amounted to 0.548 ± 0.045; in assay [1] (1000 nM) it was 0.529 ± 0.071; with BLEOMYCIN (0.5 nM), 0.78 ± 0.07; with BLEOMYCIN (1 nM) it was 0.761 ± 0.13; with BLEOMYCIN (5 nM) it was 0.698 ± 0.03; with BLEOMYCIN (10 nM), 0.819 ± 0.067. Also, the surviving fraction in the assay with BLEOMYCIN (50 nM) stood at 0.843 ± 0.016; in the assay with BLEOMYCIN (100 nM), 0.882 ± 0.046; with BLEOMYCIN (500 nM), 0.838 ± 0.047; in the assay with BLEOMYCIN (1000 nM), 0.865 ± 0.14.
